The source of these data is patent publication US9334267B2, “RAF inhibitor compounds” (Deciphera Pharmaceuticals, LLC, priority 2012, dated 2016).

One series addresses T1, human B-Raf V600E (Homo sapiens, UniProt P15056, V600E).
T1 construct: B-RafV600E (residues 433-726 containing V600E mutation) containing an N-terminal purification tag is expressed and purified; made in house
The series is described as follows: Enzymatic assay of B-Raf V600E kinase activity (Raf/MEK1 ATPase, coupled PK/LDH, A340). The series is classed as biochemical. Conditions: read-out: Enzyme IC50, nM B-Raf V600E. On the procedure: Test compounds are evaluated for their inhibitory activities against one or more of human wild type B-Raf, human wild type C-Raf, human B-Raf V600E, human B-Raf V600E+T529I or human B-Raf V600E+G468A. T529I is a threonine to isoleucine B-Raf gatekeeper mutation and G468A is a B-Raf secondary mutation at G1403C in exon 11. The enzymatic assays of B-Raf, C-Raf and B-Raf mutations evaluate a property of Raf and MEK1 complex, which in the presence of ATP, catalyzes an enhanced ATP hydrolysis (Rominger, et al, Arch. Biochem. Biophys. 2007, 464: 130-137; US Patent Publication No. 2006/0211073). The ADP formed is monitored by the well-known coupled PK/LDH (pyruvate kinase/lactate dehydrogenase) system in the form of NADH oxidation, which can be monitored and detected spectrophotometrically by absorbance at 340 nm (A340; for principal of the method see Schindler et al, Science, 2000, 289: 1938-1942). Raf activated MEK1 ATPase activity is a property shared by all forms of Raf proteins.
B-RafV600E (residues 433-726 containing V600E mutation) containing an N-terminal purification tag is expressed and purified essentially as described previously (Wan et al, Cell, 2004, 116, 855-867).
Test compounds are evaluated for their inhibitory activities against one or more of wild type B-Raf, wild type C-Raf, B-Raf V600E, B-Raf V600E+T529I and B-Raf V600E+G468A. T529I is a B-Raf gatekeeper mutation and G468A is a B-Raf secondary mutation. The enzymatic assays of B-Raf, C-Raf and B-Raf mutations evaluate a property of Raf and MEK1 complex, which in the presence of ATP, catalyzes an enhanced ATP hydrolysis (Rominger, et al, Arch. Biochem. Biophys. 2007, 464: 130-137). The ADP formed is monitored by the well-known coupled PK/LDH (pyruvate kinase/lactate dehydrogenase) system in the form of NADH oxidation, which can be monitored and detected by absorbance at 340 nm (A340; for principal of the method see Schindler et al, Science, 2000, 289: 1938-1942). Raf activated MEK1 ATPase activity is a property shared by all forms of Raf proteins. In the B-Raf wild type enzymatic assay, the reaction mixture contains 1.2 nM B-Raf, 30 nM MEK1, 1000 uM ATP, 3.5 units (per 100 ul) of PK, 5 units (per 100 ul) of LDH, 1 mM phosphoenol pyruvate (PEP), and 280 uM of NADH. In the C-Raf assay, the reaction mixture contains 0.6 nM C-Raf, 26 nM MEK1, 2000 uM ATP, and the same amount of PK, LDH, PEP and NADH as above. In the B-Raf V600E assay, the reaction mixture contains […] B-Raf V600E, 26 nM MEK1, 200 uM ATP and the same amount of PK, LDH, PEP and NADH as above. In the B-RafV600E+T529I assay, the reaction mixture contains 6.2 nM B-Raf V600E+T529I, 30 nM MEK1, 200 uM ATP and the same amount of PK, LDH, PEP and NADH as above. In the B-Raf V600E+G468A assay, the reaction mixture contains 3.5 nM B-Raf, 30 nM MEK1, 200 uM ATP and the same amount of PK, LDH, PEP and NADH as above. All assays are started by mixing the above mixture with test compound and monitoring at A340 continuously for approximately 5 hr. […] In the aforementioned assays, the enzyme constructs can be screened prior to or after cleavage of the N-terminal purification tag.

For the next series, the target named is T2, human wild type c-KIT (Homo sapiens, UniProt P10721).
T2 construct: GST (N); made in house
The series is described as follows: Enzymatic assay of c-Kit kinase activity (poly E4Y phosphorylation, coupled PK/LDH). The class given is biochemical. From the text:
c-Kit is an important oncogene, and its overexpression and genetic mutations often occur in melanoma and gastrointestinal stromal tumor (GIST) patients. In the c-Kit enzymatic assay, the phosphorylation of poly E4Y by ATP catalyzed by human c-Kit is monitored spectrophotometrically. The ADP produced from the kinase reaction is coupled to pyruvate kinase/lactate dehydrogenase (PK/LDH) reactions where NAD is formed from pyruvate and NADH. NADH can be detected by absorbance at 340 nm, as described above for enzymatic assays of kinase activities of B-Raf, C-Raf and B-Raf mutations.
The assay reaction mixture includes 6 nM human wild type c-KIT, 1 mg/mL Poly (Glu,Tyr) (Sigma), 1 mM Phosphoenol-pyruvate, 280 μM NADH, 5 U/3.5 U (per 100 ul) Pyruvate Kinase/Lactate Dehydrogenase, 85 mM Tris, pH 7.5, 17 mM MgCl2, 0.0042% Triton® X-100, 0.005% BSA, 1% DMSO. Test compound is incubated with the reaction mixture for 0.5 hour before adding 200 μM ATP to start the reaction at 30° C.

Another series concerns A375 cells. The series is described as follows: A375 cell proliferation assay (CellTiter-Blue/resazurin). The series is classed as cell-based. Particulars: Homo sapiens, A-375, V600E mutation, read-out: Cell Proliferation Inhibition IC50, nM A375. The procedure: A375 cells (catalog #CRL-1619) are obtained from the American Type Culture Collection (ATCC, Manassas, Va.). Briefly, cells are grown in DMEM High Glucose supplemented with 10% characterized fetal bovine serum (Invitrogen, Carlsbad, Calif.) and 1% Penicillin/Streptomycin/L-Glutamine at 37 degrees Celsius, 5% CO2, and 95% humidity. Cells are allowed to expand until reaching 70-95% confluency at which point they are subcultured or harvested for assay use. A serial dilution of test compound is dispensed into a 384-well black clear bottom plate in triplicate. Six hundred twenty-five cells are added per well in 50 μL complete growth medium in the 384-well plate. Plates are incubated for 67 hours at 37 degrees Celsius, 5% CO2, and 95% humidity. At the end of the incubation period, 10 μL of a 440 μM solution of resazurin (Sigma, St. Louis, Mo.) in PBS is added to each well of the plate and plates are incubated for an additional 5 hours at 37 degrees Celsius, 5% CO2, and 95% humidity. Plates are read on a Synergy2 reader (Biotek, Winooski, Vt.) using an excitation of 540 nm and an emission of 600 nm. Data is analyzed using Prism software (Graphpad, San Diego, Calif.) to calculate IC50 values.
The A375, HT-29, and Colo-205 cells (ATCC) harbor a V600E mutation.
For orientation: Resazurin is reduced to fluorescent resorufin, in cell work by metabolically active cells.

The test system of series [1] is A375res cells.
Series [2] concerns A375res cells. The series is described as follows: Proliferation assay in vemurafenib-resistant melanoma cells A375res. Conditions: Homo sapiens, 72 h, read-out: absolute IC50 values.

T1 sequence (P15056 433-726 V600E): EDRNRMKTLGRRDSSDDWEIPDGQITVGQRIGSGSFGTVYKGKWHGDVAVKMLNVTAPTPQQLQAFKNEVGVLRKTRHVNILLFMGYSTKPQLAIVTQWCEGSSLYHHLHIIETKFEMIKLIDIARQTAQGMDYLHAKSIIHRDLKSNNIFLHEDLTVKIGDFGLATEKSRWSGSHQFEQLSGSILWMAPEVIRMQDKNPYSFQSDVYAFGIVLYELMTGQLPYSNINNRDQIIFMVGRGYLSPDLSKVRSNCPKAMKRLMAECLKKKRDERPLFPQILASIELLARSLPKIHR
T2 sequence (P10721 26-976): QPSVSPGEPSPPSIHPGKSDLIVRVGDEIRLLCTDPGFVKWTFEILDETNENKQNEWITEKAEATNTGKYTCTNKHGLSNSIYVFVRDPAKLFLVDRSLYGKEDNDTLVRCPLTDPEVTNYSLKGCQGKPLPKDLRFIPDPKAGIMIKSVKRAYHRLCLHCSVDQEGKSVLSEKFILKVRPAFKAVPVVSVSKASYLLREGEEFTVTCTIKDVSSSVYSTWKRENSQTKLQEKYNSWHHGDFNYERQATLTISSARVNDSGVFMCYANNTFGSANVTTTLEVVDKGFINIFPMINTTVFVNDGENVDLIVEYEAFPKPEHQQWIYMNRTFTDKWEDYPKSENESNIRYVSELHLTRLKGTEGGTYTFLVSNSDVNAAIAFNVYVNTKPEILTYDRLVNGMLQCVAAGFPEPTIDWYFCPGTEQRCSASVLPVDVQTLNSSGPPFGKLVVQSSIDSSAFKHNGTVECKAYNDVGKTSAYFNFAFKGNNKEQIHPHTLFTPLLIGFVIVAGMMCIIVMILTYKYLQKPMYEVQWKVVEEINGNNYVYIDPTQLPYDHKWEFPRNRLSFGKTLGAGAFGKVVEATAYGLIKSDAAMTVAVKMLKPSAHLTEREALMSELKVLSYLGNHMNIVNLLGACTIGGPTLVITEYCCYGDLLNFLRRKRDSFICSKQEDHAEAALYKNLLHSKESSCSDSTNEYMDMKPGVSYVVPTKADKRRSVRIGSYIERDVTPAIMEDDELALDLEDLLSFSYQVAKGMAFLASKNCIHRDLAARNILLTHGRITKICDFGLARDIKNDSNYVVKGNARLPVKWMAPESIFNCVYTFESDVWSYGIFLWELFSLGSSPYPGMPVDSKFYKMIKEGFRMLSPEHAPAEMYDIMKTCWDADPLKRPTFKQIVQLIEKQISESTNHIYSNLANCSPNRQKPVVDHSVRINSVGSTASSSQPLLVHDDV

As to `Cc1cc(F)c(NC(=O)NCCC(C)(C)C)cc1-c1cc2cnc(NCCO)nc2nc1C` [Example 16, 1-(3,3-Dimethylbutyl)-3-[2-fluoro-5-[2-(2-hydroxyethylamino)-7-methyl-pyrido[2,3-d]pyrimidin-6-yl]-4-methyl-phenyl]urea], the IC50 is below 150 nM on human B-Raf V600E, below 150 nM on human wild type c-KIT, below 100 nM with A375 cells and 15 to 1100 nM in the series on A375res cells [2]. In addition, the “IC50 shift A375 to A375res” value in the series with A375res cells [1] is reported as 0.6-1.9 fold.

Take `Cc1cc(F)c(NC(=O)NCCC(C)(C)C)cc1-c1cc2cnc(NCCN(C)C)nc2nc1C` [Example 17, 1-[5-[2-(2-Dimethylaminoethylamino)-7-methyl-pyrido[2,3-d]pyrimidin-6-yl]-2-fluoro-4-methyl-phenyl]-3-(3,3-dimethylbutyl)urea]: the IC50 at human B-Raf V600E is below 150 nM; at human wild type c-KIT it was below 150 nM; in the series on A375 cells, below 100 nM; with A375res cells [2] it was 15 to 1100 nM. In addition, the “IC50 shift A375 to A375res” value with A375res cells [1] is 0.6-1.9 fold.

Turning to `Cc1cc(F)c(NC(=O)NCCC(C)(C)C)cc1-c1cc2cnc(N)nc2nc1C` [Example 20, 1-(5-(2-Amino-7-methylpyrido[2,3-d]pyrimidin-6-yl)-2-fluoro-4-methylphenyl)-3-(3,3-dimethylbutyl)urea], the IC50 on human B-Raf V600E is below 150 nM; on human wild type c-KIT it was below 150 nM; in the series on A375 cells, below 100 nM; with A375res cells [2], 15 to 1100 nM. In addition, in the series with A375res cells [1], the “IC50 shift A375 to A375res” value is given as 0.6-1.9 fold.

Regarding `Cc1cc(F)c(NC(=O)NCCC(C)(C)C)cc1-c1cc2cnc(NCCN3CCOCC3)nc2nc1C` [Example 21, 1-(3,3-Dimethylbutyl)-3-(2-fluoro-4-methyl-5-(7-methyl-2-((2-morpholinoethyl)amino)pyrido[2,3-d]pyrimidin-6-yl)phenyl)ure], the IC50 is below 150 nM at human B-Raf V600E, below 150 nM at human wild type c-KIT, below 100 nM with A375 cells and 15 to 1100 nM in the series on A375res cells [2]. For the same compound, the “IC50 shift A375 to A375res” value with A375res cells [1] is 0.6-1.9 fold.

As for `CNc1ncc2cc(-c3cc(NC(=O)NCCC4(C)CC4)c(F)cc3C)c(C)nc2n1` [Example 24, 1-(2-Fluoro-4-methyl-5-(7-methyl-2-(methylamino)pyrido[2,3-d]pyrimidin-6-yl)phenyl)-3-(2-(1-methylcyclopropyl)ethyl)urea], the IC50 at human B-Raf V600E is below 150 nM; against human wild type c-KIT, below 150 nM; in the series with A375 cells, below 100 nM; with A375res cells [2], 15 to 1100 nM. In addition, in the series on A375res cells [1], the “IC50 shift A375 to A375res” value is on record as 0.6-1.9 fold.

`Cc1cc(F)c(NC(=O)NCCC(C)(C)F)cc1-c1cc2cnc(NC3COC3)nc2nc1C` [Example 25, 1-(3-Fluoro-3-methylbutyl)-3-(2-fluoro-4-methyl-5-(7-methyl-2-(oxetan-3-ylamino)pyrido[2,3-d]pyrimidin-6-yl)phenyl)urea]: the IC50 on human B-Raf V600E was below 150 nM; against human wild type c-KIT, below 150 nM; in the series with A375 cells, below 100 nM; in the series on A375res cells [2], 15 to 1100 nM. In the series on A375res cells [1], the “IC50 shift A375 to A375res” value is listed as 0.6-1.9 fold.

`CCNc1ncc2cc(-c3cc(NC(=O)NCCC(C)(C)F)c(F)cc3C)c(C)nc2n1` [Example 26, 1-(5-(2-(Ethylamino)-7-methylpyrido[2,3-d]pyrimidin-6-yl)-2-fluoro-4-methylphenyl)-3-(3-fluoro-3-methylbutyl)urea]: the IC50 was below 150 nM on human B-Raf V600E, below 150 nM against human wild type c-KIT, 100 to 1000 nM with A375 cells and 15 to 1100 nM in the series on A375res cells [2]. Also, the “IC50 shift A375 to A375res” value with A375res cells [1] is 0.6-1.9 fold.

Take `CNc1ncc2cc(-c3cc(NC(=O)NCCC(C)(C)C(F)(F)F)c(F)cc3C)c(C)nc2n1` [Example 27, 1-(2-Fluoro-4-methyl-5-(7-methyl-2-(methylamino)pyrido[2,3-d]pyrimidin-6-yl)phenyl)-3-(4,4,4-trifluoro-3,3-dimethylbutyl)urea]: the IC50 is below 150 nM at human B-Raf V600E, below 150 nM against human wild type c-KIT, below 100 nM in the series with A375 cells and 15 to 1100 nM with A375res cells [2]. Moreover, in the series with A375res cells [1], the “IC50 shift A375 to A375res” value is 0.6-1.9 fold.

On to `Cc1cc(F)c(NC(=O)NCCC(C)(C)F)cc1-c1cc2cnc(N)nc2nc1C` [Example 28, 1-(5-(2-Amino-7-methylpyrido[2,3-d]pyrimidin-6-yl)-2-fluoro-4-methylphenyl)-3-(3-fluoro-3-methylbutyl)urea], for which the IC50 at human B-Raf V600E was below 150 nM; against human wild type c-KIT it was below 150 nM; with A375 cells it was 1000 to 10000 nM; with A375res cells [2] it was 15 to 1100 nM. Further, the “IC50 shift A375 to A375res” value with A375res cells [1] is on record as 0.6-1.9 fold.

With `CNc1ncc2cc(-c3cc(NC(=O)NCCC4(C(F)(F)F)CC4)c(F)cc3C)c(C)nc2n1` [Example 30, 1-(2-Fluoro-4-methyl-5-(7-methyl-2-(methylamino)pyrido[2,3-d]pyrimidin-6-yl)phenyl)-3-(2-(1-(trifluoromethyl)cyclopropyl)ethyl)urea], the IC50 at human B-Raf V600E is below 150 nM; against human wild type c-KIT it was below 150 nM; with A375 cells it was below 100 nM; with A375res cells [2] it was 15 to 1100 nM. In addition, the “IC50 shift A375 to A375res” value in the series on A375res cells [1] is 0.6-1.9 fold.

Take `CNc1ncc2cc(-c3cc(NC(=O)NCCC(C)(C)F)c(F)cc3C)cnc2n1` [Example 34, 1-(3-Fluoro-3-methyl-butyl)-3-[2-fluoro-4-methyl-5-(2-methylaminopyrido[2,3-d]pyrimidin-6-yl)phenyl]urea]: the IC50 was below 150 nM on human B-Raf V600E, below 150 nM on human wild type c-KIT, 100 to 1000 nM in the series with A375 cells and 15 to 1100 nM with A375res cells [2]. Besides, in the series with A375res cells [1], the “IC50 shift A375 to A375res” value is on record as 0.6-1.9 fold.
